# Results from ChEMBL document CHEMBL3632604, “Anti-inflammatory Inositol Derivatives from the Whole Plant of Inula cappa” (J Nat Prod, 2015).
# Activity calls are given as the source filed them. The calls are words filed in the database; no cut-off is given here.
# Key:
# RAW264.7 [1] = assay: Antiinflammatory activity in mouse RAW264.7 cells assessed as inhibition of LPS-induced nitric oxide production at 10 uM preincubated for 30 mins followed by LPS stimulation measured after 24 hrs by Griess assay relative to control; type: functional
# RAW264.7 [2] = assay: Antiinflammatory activity in mouse RAW264.7 cells assessed as inhibition of LPS-induced nitric oxide production preincubated for 30 mins followed by LPS stimulation measured after 24 hrs by Griess assay; type: functional, cell-based
SMILES,inhibition at 10 µM (RAW264.7 [1]) [%],inhibition (RAW264.7 [1]),IC50 (RAW264.7 [2]) [µM]
C/C=C(/C)C(=O)O[C@H]1[C@@H](O)[C@@H](OC(C)=O)[C@H](OC(=O)/C(C)=C\C)[C@@H](OC(=O)/C(C)=C\C)[C@@H]1O,38.3,,
C/C=C(/C)C(=O)O[C@@H]1[C@@H](O)[C@H](OC(=O)/C(C)=C\C)[C@@H](OC(=O)/C(C)=C\C)[C@H](O)[C@@H]1OC(C)=O,,Active,9.6
C/C=C(/C)C(=O)O[C@H]1[C@H](OC(=O)/C(C)=C\C)[C@H](OC(=O)/C(C)=C\C)[C@@H](O)[C@@H](OC(=O)/C(C)=C\C)[C@@H]1O,59.6,,9.9
C/C=C(/C)C(=O)O[C@H]1[C@H](O)[C@@H](O)[C@H](OC(=O)/C(C)=C\C)[C@H](OC(=O)/C(C)=C\C)[C@H]1O,,Active,8.9
C/C=C(/C)C(=O)O[C@@H]1[C@H](O)[C@@H](OC(C)=O)[C@@H](OC(=O)/C(C)=C\C)[C@H](OC(=O)/C(C)=C\C)[C@H]1O,43.4,,11.9
C/C=C(/C)C(=O)O[C@@H]1[C@@H](O)[C@@H](OC(=O)/C=C(\C)CC)[C@H](O)[C@@H](O)[C@@H]1OC(=O)/C(C)=C\C,,Active,8.4
C/C=C(/C)C(=O)O[C@@H]1[C@@H](O)[C@H](OC(=O)/C(C)=C\C)[C@@H](OC(=O)/C(C)=C\C)[C@H](O)[C@@H]1O,37.4,,23.4
C/C=C(/C)C(=O)O[C@@H]1[C@@H](O)[C@H](OC(=O)/C(C)=C\C)[C@@H](OC(=O)/C(C)=C\C)[C@H](O)[C@@H]1OC(=O)C(C)C,47.2,,7.6
C/C=C(/C)C(=O)O[C@@H]1[C@H](OC(C)=O)[C@@H](OC(C)=O)[C@@H](OC(=O)/C(C)=C\C)[C@H](O)[C@H]1OC(=O)/C(C)=C\C,,Active,7.1
C/C=C(/C)C(=O)O[C@H]1[C@H](O)[C@H](O)[C@H](OC(=O)/C=C(\C)CC)[C@@H](O)[C@@H]1OC(=O)/C(C)=C\C,,Active,
C/C=C(/C)C(=O)O[C@@H]1[C@@H](O)[C@H](O)[C@@H](OC(=O)/C(C)=C\C)[C@@H](OC(=O)/C(C)=C\C)[C@H]1O,,Active,
C/C=C(/C)C(=O)O[C@@H]1[C@@H](O)[C@H](OC(=O)/C(C)=C\C)[C@H](OC(=O)/C(C)=C\C)[C@@H](O)[C@H]1OC(=O)/C(C)=C\C,39.7,,7
Cc1ccc(-c2cc(C(F)(F)F)nn2-c2ccc(S(N)(=O)=O)cc2)cc1 [CELECOXIB],59.2,,1.6
C/C=C(/C)C(=O)O[C@@H]1[C@@H](O)[C@@H](OC(=O)/C(C)=C\C)[C@@H](OC(=O)/C(C)=C\C)[C@H](O)[C@H]1OC(=O)/C(C)=C\C,42.1,,9.8
C/C=C(/C)C(=O)O[C@@H]1[C@@H](O)[C@H](OC(=O)/C(C)=C\C)[C@@H](OC(=O)/C(C)=C\C)[C@@H](OC(=O)/C(C)=C\C)[C@H]1O,47.9,,19
